According to US20070264679A1, “Method for analyzing the activity of lipoxygenase using a water-soluble substrate” (Chungnam National University Industry Collaboration …, priority 2006, published 2007):

Tests used:
Reticulocyte LOX = target: T1, Reticulocyte LOX (Oryctolagus cuniculus, UniProt P12530); test: Kinetics of oxygenation of linoleoylated substrates by reticulocyte LOX; type: biochemical, Rabbit; settings: reticulocyte LOX 8.2 units/ml, 50 mM phosphate buffer pH 7.4, 25° C.; for Km: substrate 3-100 μM
T1 construct: purchased Biomol Inc. (Plymouth Meeting, Pa., USA)
T1 sequence (P12530 1-663): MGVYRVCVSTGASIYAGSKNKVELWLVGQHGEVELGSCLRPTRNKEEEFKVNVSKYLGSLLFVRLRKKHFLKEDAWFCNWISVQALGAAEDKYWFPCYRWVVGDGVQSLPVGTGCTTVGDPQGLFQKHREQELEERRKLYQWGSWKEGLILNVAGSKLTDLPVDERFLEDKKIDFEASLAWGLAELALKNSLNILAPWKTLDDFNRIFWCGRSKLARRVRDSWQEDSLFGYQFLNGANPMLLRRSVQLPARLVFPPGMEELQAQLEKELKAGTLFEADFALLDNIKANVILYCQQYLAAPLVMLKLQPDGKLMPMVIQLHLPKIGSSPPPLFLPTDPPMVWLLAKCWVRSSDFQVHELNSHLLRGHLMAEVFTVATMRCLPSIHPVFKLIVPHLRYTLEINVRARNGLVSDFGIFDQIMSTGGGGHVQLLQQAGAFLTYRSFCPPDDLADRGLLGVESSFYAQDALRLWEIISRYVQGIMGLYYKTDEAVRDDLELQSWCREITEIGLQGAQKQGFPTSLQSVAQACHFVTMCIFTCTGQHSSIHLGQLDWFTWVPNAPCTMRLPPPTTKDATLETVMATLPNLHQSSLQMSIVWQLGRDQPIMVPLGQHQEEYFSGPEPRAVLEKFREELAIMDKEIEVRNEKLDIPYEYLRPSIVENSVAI
From the text: Data were expressed as means ±S.D. of results from at least three independent experiments.

[1] = target: T2, LOX-1 (soybean lipoxygenase) (Glycine max, UniProt P08170); test: pH-dependent oxygenation by LOX, initial velocity of absorbance at 234 nm; type: biochemical; settings: substrate 100 μM; for LOX activity on various pH conditions: 30 sec, 25° C.
T2 construct: purchased Sigma-Aldrich Corp (St. Louis, Mo., USA) lipoxidase Type I-B
T2 sequence (P08170 1-839): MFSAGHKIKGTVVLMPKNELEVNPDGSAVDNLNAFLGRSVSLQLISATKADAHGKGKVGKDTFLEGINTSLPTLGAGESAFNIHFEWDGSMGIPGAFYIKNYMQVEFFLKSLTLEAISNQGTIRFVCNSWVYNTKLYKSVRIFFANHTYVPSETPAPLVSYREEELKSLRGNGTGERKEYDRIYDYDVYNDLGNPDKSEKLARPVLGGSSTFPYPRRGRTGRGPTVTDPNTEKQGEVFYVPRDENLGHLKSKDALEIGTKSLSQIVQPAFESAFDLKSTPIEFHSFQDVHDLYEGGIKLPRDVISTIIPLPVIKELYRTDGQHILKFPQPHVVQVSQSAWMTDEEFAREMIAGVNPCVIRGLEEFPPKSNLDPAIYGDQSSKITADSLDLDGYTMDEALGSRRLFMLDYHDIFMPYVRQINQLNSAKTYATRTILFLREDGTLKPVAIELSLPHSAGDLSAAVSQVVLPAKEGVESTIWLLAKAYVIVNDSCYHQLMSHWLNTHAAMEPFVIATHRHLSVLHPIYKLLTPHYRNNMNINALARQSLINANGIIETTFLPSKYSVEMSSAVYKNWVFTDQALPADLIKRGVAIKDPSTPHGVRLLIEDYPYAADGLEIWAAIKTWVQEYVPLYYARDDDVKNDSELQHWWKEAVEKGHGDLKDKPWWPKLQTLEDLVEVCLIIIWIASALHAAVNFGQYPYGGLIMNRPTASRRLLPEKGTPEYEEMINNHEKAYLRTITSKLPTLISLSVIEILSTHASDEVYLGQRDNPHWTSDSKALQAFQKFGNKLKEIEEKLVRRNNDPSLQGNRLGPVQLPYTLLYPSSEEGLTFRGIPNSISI
Experimental: FIG. 7 is an absorbance-pH graph showing the effect of pH on the rate of LOX-1-catalyzed oxygenation of linoleoyl-lysoPC where LOX-1 (0.02 units/ml) was incubated with 100 μM of linoleoyl-lysoPC (▪), 100 μM of sodium linoleate (●) or 250 μM of soybean LPC (▴) in buffers of various pHs; 200 mM phosphate (pH 6-8), 50 mM borax (pH 8.5-9.5) and 300 mM sodium bicarbonate (pH 10-11).
LOX-1 (0.02 units/ml) was incubated with linoleoyl-lysoPC (100 μM) in 500 μl of buffers of various pHs (pH 6.0-11) at 25° C. as described before (Began et al, Biochemistry 38 (1999) 13920-13927); 200 mM phosphate (pH 6-8), 50 mM borax (pH 8.5-9.5), 300 mM sodium bicarbonate (pH 10-11). Separately, the oxygenation was started by including LOX-1 (0.02 units/ml) in the reaction mixture containing sodium linoleate (100 μM) in the presence of Tween 20 (25 μM). […]
LO (840 units/ml Sigma, Saint Louis, Mo., USA) was incubated with 1-linoleoyl-lysophosphatidylcholine (100 μM) in 0.5 ml of buffers of various pHs (pH 6.0-11) as shown in Table 4 for 30 sec at 25° C.

| LOX activity on various pH conditions ([1]; pH 6.5) | LOX activity on various pH conditions ([1]; pH 9.5) | LOX activity on various pH conditions ([1]; pH 10.5) | SMILES | Vm (Reticulocyte LOX) [units/mg] | Km (Reticulocyte LOX) [µM] | LOX activity on various pH conditions ([1]; pH 7) | LOX activity on various pH conditions ([1]; pH 7.5) | LOX activity on various pH conditions ([1]; pH 8) | LOX activity on various pH conditions ([1]; pH 8.5) | LOX activity on various pH conditions ([1]; pH 9) | LOX activity on various pH conditions ([1]; pH 10) | LOX activity on various pH conditions ([1]; pH 11) | optimal pH range for oxygenation by LOX-1 ([1]; LOX-1 0.02 units/ml, pH 6-11) | LOX activity on various pH conditions ([1]; pH 6) |
| --- | --- | --- | --- | --- | --- | --- | --- | --- | --- | --- | --- | --- | --- | --- |
| ◯ | ◯ | ◯ | CCCCC/C=C\C/C=C\CCCCCCCC(=O)O [Linoleic acid, linoleic acid] | 545 ± 5 | 12.1 ± 0.8 | ◯ | ◯ | ◯ | ◯ | ◯ | ◯ | ◯ | – | – |
| – | – | – | CCCCC/C=C\C/C=C\CCCCCCCC(=O)OCC(O)COP(=O)([O-])OCC[N+](C)(C)C (centres unmarked) [Linoleoyl-lysoPC, 1-linoleoyl Lysophosphatidylcholine] | 1622 ± 19 | 17.5 ± 0.9 | ◯ | ◯ | ◯ | ◯ | ◯ | ◯ | ◯ | about 9 | ◯ |
